Assay results published in patent US20230235378A1, “LZHEIMER'S DISEASE-SPECIFIC ALTERATIONS OF PROTEIN KINASE C EPSILON (PKC-EPSILON PROTEIN LEVELS” (WEST VIRGINIA UNIVERSITY BOARD OF GOVERNORS ON BEHALF OF …, priority 2010, published 2023).

Tests used:
[1] = tested on: Endothelin-converting enzyme (ECE); test: ECE assay in neuroblastoma cells (fluorimetric, McaBK2); type: cell-based, human; details: bryostatin 0.27 nM, BR-101 1 μM, BR-111 1
Protocol: ECE Assay. SH-5757 neuroblastoma cells were incubated with bryostatin (0.27 nM), BR-101 (DCP-LA) (1 μM), and BR-111 (DHA-CP6) (1 Endothelin-converting enzyme (ECE) was measured fluorimetrically using the method of Johnson and Ahn, Anal. Biochem. 2000; 286: 112-118. A sample of cell homogenate (20 μl) was incubated in 50 mM MES-KOH, pH 6.0, 0.01% C 12E10 (polyoxyethylene-10-lauryl ether), and 15 μM McaBK2 (7-Methoxycoumarin-4-acetyl [Ala7-(2,4-Dinitrophenyl)Lys9]-bradykinin trifluoroacetate salt) (Sigma-Aldrich). After 60 min at 37° C., the reaction was quenched by adding trifluoroacetic acid to 0.5%. The sample was diluted to 1.4 ml with water and the fluorescence was measured at ex=334 nm, em=398 nm.

[2] = target: T1, PKCε (Homo sapiens, UniProt Q02156); details: Kanno et al.; cited from earlier work
T1 construct: purchased Calbiochem (San Diego, Calif.)
T1 sequence (Q02156 1-737): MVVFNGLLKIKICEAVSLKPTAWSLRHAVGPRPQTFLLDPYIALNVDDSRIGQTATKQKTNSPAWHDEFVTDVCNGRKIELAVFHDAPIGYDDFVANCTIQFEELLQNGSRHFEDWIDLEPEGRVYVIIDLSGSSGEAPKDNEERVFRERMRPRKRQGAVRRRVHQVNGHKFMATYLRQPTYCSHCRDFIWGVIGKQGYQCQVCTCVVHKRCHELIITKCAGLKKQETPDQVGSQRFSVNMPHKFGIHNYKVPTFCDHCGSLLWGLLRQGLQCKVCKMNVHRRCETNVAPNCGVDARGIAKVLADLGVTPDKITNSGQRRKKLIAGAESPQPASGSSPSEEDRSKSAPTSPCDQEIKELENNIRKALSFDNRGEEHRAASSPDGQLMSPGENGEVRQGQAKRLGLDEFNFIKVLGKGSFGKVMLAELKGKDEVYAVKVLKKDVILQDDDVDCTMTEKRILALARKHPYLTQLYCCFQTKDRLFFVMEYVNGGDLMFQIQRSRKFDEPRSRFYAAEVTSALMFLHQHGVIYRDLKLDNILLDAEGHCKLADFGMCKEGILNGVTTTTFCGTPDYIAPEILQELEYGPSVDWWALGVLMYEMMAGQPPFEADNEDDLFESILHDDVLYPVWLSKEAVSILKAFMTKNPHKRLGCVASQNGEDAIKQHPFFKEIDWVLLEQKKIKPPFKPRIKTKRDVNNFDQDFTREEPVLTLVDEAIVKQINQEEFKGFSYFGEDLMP

[3] = tested on: Aß; test: Aß production in N2a neuroblastoma cells transfected with human APPSwe/PS1D (Aß 1-42 ELISA); type: cell-based, mouse
Protocol: Aß Measurement and Cell Viability Assay. Aß was measured using an Aß 1-42 human fluorimetric ELISA kit (Invitrogen) according to the manufacturer's instructions. Results were measured in a Biotek Synergy HT microplate reader. AlamarBlue and CyQuant NF (Invitrogen) according to the manufacturer's instructions.
To measure the effects of PKC activation on Aß production, we used mouse neuro2a (N2a) neuroblastoma cells transfected with human APPSwe/PS1D, which produce large quantities of Aβ. Petanceska et al., J. Neurochem. 1996; 74: 1878-84. […] With bryostatin, which activates PKC by binding to the diacylglycerol-binding site, the inhibition was biphasic, with concentrations of 20 nM or higher producing no net effect. This may be explained by the ability of this class of PKC activators to downregulate PKC when used at high concentrations.

[4] = target: T1, PKCε; test: Protein kinase C assay with recombinant PKC epsilon isoform ([γ32P]ATP, histones); type: biochemical; details: lowest concentration tested (10 nM)
Protocol: Protein Kinase C Assay. Recombinant PKC (1 ng of alpha or epsilon isoform) was mixed with the BR-101 (DCP-LA) in the presence of 10 micromolar histones, 5 mM CaCl2, 1.2 μg/μl phosphatidyl-L-serine, 0.18 μg/μl 1,2-dioctanoyl-sn-glycerol (DAG), 10 mM MgCl2, 20 mM HEPES (pH 7.4), 0.8 mM EDTA, 4 mM EGTA, 4% glycerol, 8 μg/ml aprotinin, 8 μg/ml leupeptin, and 2 mM benzamidine. 0.5 micro Ci [γ32P]ATP was added. The incubation mixture was incubated for 15 min at 37 degrees in a total volume of 10 microliters. The reaction was stopped by spotting the reaction mixtures on 1×2 cm strips of cellulose phosphate paper (Whatman P81) and immediately washing twice for 1 hr in 0.5% H3PO4. The cellulose phosphate strips were counted in a scintillation counter. In some experiments, phosphatidylserine, diacylglycerol, and/or calcium were removed.

[5] = tested on: TACE; test: TACE assay in cell homogenates of neuronal cells; type: cell-based; details: human SH-SY5Y, N2a mouse neuroblastoma cells, primary neurons from rat hippocampus
Protocol: TACE Assay. TACE was measured by incubating 5 μl cell homogenate, 3 μl buffer (50 mM Tris-HCl 7.4 plus 25 mM NaCl plus 4% glycerol), and 1 μl of 100 μM TACE substrate IV (Aβz-LAQAVRSSSR-DPa) (Calbiochem) for 20 min at 37° in 1.5-ml polypropylene centrifuge tubes (Jin et al., Anal. Biochem. 2002; 302: 269-75). The reaction was stopped by cooling to 4° C. The samples were diluted to 1 ml and the fluorescence was rapidly measured (ex=320 nm, em=420 nm) in a Spex Fluorolog 2 spectrofluorometer.
Buxbaum et al., J. Biol. Chem. 1998; 273: 27765-67; Etcheberrigaray et al., Proc. Natl. Acad. Sci. USA. 2006: 103:8215-20. However, many of these earlier studies were carried out in fibroblasts and other non-neuronal cell types, which appear to respond differently to PKC activators than neurons.

## CCCCCC1CC1CC1CC1CCCCCCCC(=O)O (stereo not drawn) [BR-101, 8-[2-(2-pentyl-cyclopropylmethyl)-cyclopropyl]-octanoic acid]
[1]
  change in ECE activity: sustained increase
[2]
  potency for PKCε over other PKC isozymes: greater than 7 fold
[3]; 24 h incubation, various concentrations
  levels of both intracellular and secreted Aß: markedly reduced
[3]; concentrations up to 10 to 100 μM, no evidence of downregulation at higher concentrations
  concentration dependence of Aß inhibition: monotonically increasing inhibition
[4]
  activation of PKCε: 2.75 fold
[5]
  change in TACE activity: only produced small increases
